# Read-outs that look alike come from different tables or passages of the source.
# Legend:
# [1] = target: T1, succinate dehydrogenase (Botrytis cinerea, UniProt A0A384J5E4+A0A384J8V8+A0A384JHJ5); experiment: Enzyme inhibition: succinate dehydrogenase activity in Botrytis cinerea mitochondria (DCPIP reduction); format: biochemical; conditions: concentration required to inhibit the rate of DCPIP reduction by 50%; Botrytis cinerea isolate Nick mitochondria; read-out: I50 (μM conc.)
# T1 construct: succinate-DCPIP reductase assay with KCN
# T1 sequence (A0A384J5E4 1-300): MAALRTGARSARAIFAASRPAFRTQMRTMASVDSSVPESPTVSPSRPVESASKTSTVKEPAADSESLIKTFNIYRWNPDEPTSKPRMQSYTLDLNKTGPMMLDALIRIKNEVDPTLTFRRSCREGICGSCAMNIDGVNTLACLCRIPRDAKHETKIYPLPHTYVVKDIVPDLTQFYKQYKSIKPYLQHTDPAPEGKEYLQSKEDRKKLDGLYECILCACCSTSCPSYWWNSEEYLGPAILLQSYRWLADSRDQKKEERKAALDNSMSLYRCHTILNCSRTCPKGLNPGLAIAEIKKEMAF
# T1 sequence (A0A384J8V8 1-189): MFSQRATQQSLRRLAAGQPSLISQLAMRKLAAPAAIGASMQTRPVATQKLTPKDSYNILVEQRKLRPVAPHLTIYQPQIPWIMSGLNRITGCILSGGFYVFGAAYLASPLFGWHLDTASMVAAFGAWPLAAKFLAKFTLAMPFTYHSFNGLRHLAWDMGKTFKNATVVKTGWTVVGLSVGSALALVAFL
# T1 sequence (A0A384JHJ5 1-192): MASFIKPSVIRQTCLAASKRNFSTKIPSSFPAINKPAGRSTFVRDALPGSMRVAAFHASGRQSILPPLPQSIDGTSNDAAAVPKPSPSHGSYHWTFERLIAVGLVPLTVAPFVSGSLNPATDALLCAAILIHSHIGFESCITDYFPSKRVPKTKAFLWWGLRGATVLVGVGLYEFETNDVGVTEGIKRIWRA
# T1 sequence (A0A384K456 1-647 partner): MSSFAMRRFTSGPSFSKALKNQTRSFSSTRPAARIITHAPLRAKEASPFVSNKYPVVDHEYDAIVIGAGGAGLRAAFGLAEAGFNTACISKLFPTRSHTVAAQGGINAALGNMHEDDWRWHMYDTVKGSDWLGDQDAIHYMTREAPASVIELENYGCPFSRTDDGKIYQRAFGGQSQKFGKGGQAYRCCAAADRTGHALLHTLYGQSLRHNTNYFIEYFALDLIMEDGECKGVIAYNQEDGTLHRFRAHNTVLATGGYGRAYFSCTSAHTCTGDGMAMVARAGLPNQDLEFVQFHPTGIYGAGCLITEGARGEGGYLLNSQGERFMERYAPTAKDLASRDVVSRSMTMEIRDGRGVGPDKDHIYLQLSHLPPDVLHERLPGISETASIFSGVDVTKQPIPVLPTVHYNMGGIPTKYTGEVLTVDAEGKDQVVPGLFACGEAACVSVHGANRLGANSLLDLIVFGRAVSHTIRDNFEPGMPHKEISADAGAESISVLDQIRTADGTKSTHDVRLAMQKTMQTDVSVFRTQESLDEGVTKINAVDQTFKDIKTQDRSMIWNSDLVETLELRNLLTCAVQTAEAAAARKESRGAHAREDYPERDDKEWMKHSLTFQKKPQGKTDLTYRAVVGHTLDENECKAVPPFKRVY
# Outline: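 Crude mitochondria from Botrytis cinerea isolate Nick mycelia, prepared by bead-beating and differential centrifugation, started reactions. SDH activity followed as DCPIP reduction at 600 nm in 50 mM K-phosphate pH 7.2 with 1 mM KCN, 45 μM DCPIP, 17 mM succinate, 1% acetone. I50 from semilog inhibition plots, corrected for succinate-free rates.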
# [2] = system: Botrytis cinerea; experiment: Eggplant grey mold; format: in vivo; set-up: scale not given here; conditions: inoculated 24 h later, rated after 3-4 days; for Disease Control Rating at 500 ppm: eggplant sprayed with 500 ppm; for Disease Control Rating at 20 ppm: eggplant sprayed with 20 ppm; for Disease Control Rating at 100 ppm: eggplant sprayed with 100 ppm
# Outline: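 Protective test: compound formulations (2:3 acetone:water, 0.5% Tween 20; 500, 100 or 20 ppm) sprayed on 14-18-day-old plants, with spore inoculum (4×10^6 spore/mL) applied a day later. Disease control rated on Botrytis lesions after 3-4 days at 23 °C and 100% humidity.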
# [3] = system: Botrytis cinerea; experiment: Vine grey mold (grape berries); format: in vivo; conditions: for pest or weed control at 50 ppm: read-out: % DISEASE CONTROL 50 ppm; for pest or weed control at 200 ppm: read-out: % DISEASE CONTROL 200 ppm
# Outline: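 Preventive berry test: compound at 50 or 200 ppm (acetone/water, 0.05% Tween 20) applied one day before inoculation with 10^6 spores/mL Botrytis conidia. After 7-10 days at 20 °C under 12 h light, infected surface area rated; disease control expressed as percent reduction from control mean; repeated-test values averaged.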
# [4] = system: Rhizoctonia solani; experiment: Rice sheath blight; format: in vivo; set-up: scale not given here; conditions: inoculated two days later, rated after 7 days, average of five plants; for Disease Control Rating at 0.02 mg/mL: foliage and soil sprayed with 0.02 mg/mL; for Disease Control Rating at 0.1 mg/mL: foliage and soil sprayed with 0.1 mg/mL; for Disease Control Rating at 0.5 mg/mL: foliage and soil sprayed with 0.5 mg/mL
# Outline: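 Rice plants 11–15 days old had foliage and soil sprayed with 0.5, 0.1 or 0.02 mg/mL Compound A in water/acetone/Tween 20, then kept in flooded trays. Two days later, rice-grain Rhizoctonia solani inoculum went to plant bases; disease control scored versus untreated after 7 days at 25 °C, high humidity, averaging five plants.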
# [5] = system: Botrytis cinerea Mitochondria; conditions: 1 μM concentration; cited from earlier work
# [6] = grape berries treated with 50 ppm, average of six berries, 7-10 days
# [7] = grape berries treated with 200 ppm, average of six berries, 7-10 days
Compound,IC50 [1] [µM],Disease Control Rating at 500 ppm [2],pest or weed control at 50 ppm [3] [%],pest or weed control at 200 ppm [3] [%],Disease Control Rating at 0.02 mg/mL [4],Disease Control Rating at 0.1 mg/mL [4],Disease Control Rating at 0.5 mg/mL [4],inhibition (respiratory inhibition) [5] [%],Disease Control Rating at 20 ppm [2],Disease Control Rating at 100 ppm [2],"pest or weed control at 50 ppm [3, 6] [%]","pest or weed control at 200 ppm [3, 7] [%]"
"CC1=C(C(=O)Nc2ccccc2)SCCO1 [Carboxin, carboxin, reference compound]",0.72 ± 0.3,0,0,0,0,1,3,68,,,,
"Cc1nn(C)c(C)c1C(=O)Nc1ccccc1C1CCCCCC1 [Example 66, 1H-pyrazole-4-carboxamide, N-(2-cycloheptylphenyl)-1,3,5-trimethyl-]",0.048,2,,,3,3,3,,0,0,32,35
"Cc1c(C(=S)Nc2ccccc2[C@@H]2C[C@H]3CC[C@@H]2C3)c(Cl)nn1C (relative stereo) [Example 103, 1H-pyrazole-4-carbothioamide, N-(2-bicyclo[2.2.1]hept-2-ylphenyl)-3-chloro-1,5-dimethyl-, exo-]",0.52,0,,,,,0,,,,5,18
"Cn1cc(C(=O)Nc2ccccc2SC2CCCCC2)c(C(F)F)n1 [Example 44, 1H-pyrazole-4-carboxamide, N-[2-(cyclohexylthio)phenyl]-3-(difluoromethyl)-1-methyl-]",0.052,1,,,,,0,,,,0,37
"Cn1cc(C(=O)Nc2ccccc2C=C2CCCC2)c(C(F)(F)F)n1 [Example 127, 1H-pyrazole-4-carboxamide, N-[2-(cyclopentylidenemethyl)phenyl]-1-methyl-3-(trifluoromethyl)-]",0.083,1,,,,,2,,0,0,12,52
"Cn1cc(C(=O)Nc2ccccc2[C@@H]2C[C@H]3CC[C@@H]2C3)c(C(F)(F)Cl)n1 (relative stereo) [Example 91, 1H-pyrazole-4-carboxamide, N-[2-bicyclo[2.2.1]hept-2-ylphenyl]-3-(chlorodifluoromethyl)-1-methyl-, exo-]",0.078,0,,,,,0,,,,0,14
"Cn1cc(C(=O)Nc2ccccc2C2=CCCC2(C)C)c(C(F)F)n1 [Example 122, 1H-pyrazole-4-carboxamide, 3-(difluoromethyl)-N-[2-(5,5-dimethyl-1-cyclopenten-1-yl)phenyl]-1-methyl-]",0.034,2,,,,,0,,1,2,67,79
"Cn1nc(C(F)(F)F)c(C(=O)Nc2ccccc2C2CCCCCC2)c1Cl [Example 89, 1H-pyrazole-4-carboxamide, 5-chloro-N-(2-cycloheptylphenyl)-1-methyl-3-(trifluoromethyl)-]",0.021,0,,,,,0,,,,24,13
"Cn1cc(C(=O)Nc2ccccc2CC2CCCCC2)c(C(F)F)n1 [Example 129, 1H-pyrazole-4-carboxamide, N-[2-(cyclohexylmethyl)phenyl]-3-(difluoromethyl)-1-methyl-]",0.11,0,,,3,3,3,,0,0,7,0
"C[C@H]1CCC[C@H](c2ccccc2NC(=O)c2cn(C)nc2C(F)(F)F)C1 (relative stereo) [Example 70, 1H-pyrazole-4-carboxamide, 1-methyl-N-[2-(3-methylcyclohexyl)-phenyl]-3-(trifluoromethyl)-, trans-]",0.012,3,,,,,0,,1,2,97,96
"Cn1cc(C(=O)Nc2ccc(F)cc2C2(C)CCCCC2)c(C(F)(F)F)n1 [Example 98, 1H-pyrazole-4-carboxamide, N-[4-fluoro-2-(1-methylcyclohexyl)-phenyl]-1-methyl-3-(trifluoromethyl)-]",0.8,0,,,,,0,,,,14,0

# — US5223526A, “Pyrazole carboxanilide fungicides and use” (Monsanto Company, priority 1992, dated 1993)
